Drawing on PubChem BioAssay (NCI), this text covers TGI for ten compounds.

Test systems include A549 NSCLC; CCRF-CEM leukemia; DU-145 prostate; EKVX NSCLC; HCC-2998 colon; HOP-62 NSCLC; M14 melanoma; MCF7 breast; MDA-MB-435; NCI-H226 lung; OVCAR-5 ovarian; RXF 393 renal; SF-539 CNS; SK-MEL-28 melanoma; SK-MEL-5 melanoma; A498 renal.
Common to all, as to assay: growth of human tumour cells (NCI), 48 h

The structures appear in SMILES notation.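 Assay format: 96-well plates, 48-hour exposure. At the TGI there is no net growth.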

In the case of `OCCOCCN1CCN(c2nc(N3CCCC3)c3nc(Cl)c(NCc4ccccc4)nc3n2)CC1`, the TGI with A549 NSCLC turned out to be 28.4 µM; with CCRF-CEM leukemia it was 32.9 µM; with DU-145 prostate it was 25.3 µM; in the test with EKVX NSCLC, 27.1 µM; in the test with HCC-2998 colon it was 15 µM; in the test on HOP-62 NSCLC, 26.7 µM. Besides, the TGI worked out at 24.8 µM in the test on M14 melanoma; 29.5 µM with MCF7 breast; 26 µM in the test on MDA-MB-435; 40.7 µM in the test with NCI-H226 lung; 28.9 µM in the test on OVCAR-5 ovarian; 11.8 µM in the test on RXF 393 renal. Further, the figures for the TGI with SF-539 CNS, with SK-MEL-28 melanoma and in the test with SK-MEL-5 melanoma were 88.3 µM, 30.2 µM and 17.9 µM, respectively.

Regarding `Nc1ccn([C@H]2CO[C@@H](CO)O2)c(=O)n1`, the TGI with A549 NSCLC was greater than 100 µM; in the test on CCRF-CEM leukemia, greater than 92 µM; in the test on DU-145 prostate it was greater than 22.6 µM; with EKVX NSCLC, greater than 100 µM; in the test with HCC-2998 colon, greater than 100 µM; with HOP-62 NSCLC, greater than 57.9 µM. Besides, the TGI in the test on M14 melanoma is 19.1 µM; in the test with MCF7 breast it was greater than 100 µM; in the test with MDA-MB-435, greater than 100 µM; with NCI-H226 lung, greater than 100 µM; in the test on OVCAR-5 ovarian it was greater than 100 µM; in the test on RXF 393 renal, greater than 83.3 µM. For the same compound, the results for the TGI with SF-539 CNS, with SK-MEL-28 melanoma and with SK-MEL-5 melanoma were 68.4 µM, greater than 100 µM and greater than 100 µM, respectively.

`Cc1nc2c(O)cccc2c(=O)[nH]1`: the TGI in the test with A498 renal, in the test on A549 NSCLC, in the test on CCRF-CEM leukemia, in the test on EKVX NSCLC, with HCC-2998 colon and with HOP-62 NSCLC was greater than 1000 µM throughout. Moreover, the TGI in the test with M14 melanoma, with MCF7 breast, with MDA-MB-435, in the test on NCI-H226 lung, with OVCAR-5 ovarian and with RXF 393 renal was greater than 1000 µM throughout. Moreover, the TGI in the test on SF-539 CNS and with SK-MEL-28 melanoma was greater than 1000 µM in each case.

Consider `NCCCCC(N)C(=O)N1CCN(c2nc(N3CCCC3)c3nc(Cl)c(NCc4ccccc4)nc3n2)CC1` (stereo not drawn), for which the TGI came to 37.3 µM in the test with A549 NSCLC; 37.7 µM in the test with CCRF-CEM leukemia; 33.5 µM with DU-145 prostate; 36 µM with EKVX NSCLC; 34.7 µM in the test with HCC-2998 colon; 29.3 µM in the test on HOP-62 NSCLC. In addition, the TGI in the test with M14 melanoma worked out at 33.9 µM; in the test with MCF7 breast, 38.1 µM; in the test with MDA-MB-435, 46.6 µM; in the test with NCI-H226 lung it was 45.6 µM; with OVCAR-5 ovarian it was 33.9 µM; in the test with RXF 393 renal it was 34 µM. Moreover, the figures for the TGI in the test on SF-539 CNS, with SK-MEL-28 melanoma and in the test on SK-MEL-5 melanoma were 37.6 µM, 40.5 µM and 34.1 µM, respectively.

`OC(c1ccsc1)c1cc2ccccc2s1` (stereo not drawn): the TGI in the test with A549 NSCLC, in the test on CCRF-CEM leukemia, with DU-145 prostate, in the test with EKVX NSCLC, with HCC-2998 colon and in the test with HOP-62 NSCLC was greater than 10 µM throughout. Besides, the TGI in the test on M14 melanoma, in the test with MCF7 breast, with MDA-MB-435, in the test on NCI-H226 lung, in the test with OVCAR-5 ovarian and with RXF 393 renal was greater than 10 µM in each case. In addition, the TGI with SF-539 CNS, with SK-MEL-28 melanoma and in the test on SK-MEL-5 melanoma was greater than 10 µM throughout.

With `COc1c(C(=O)/C(=N/Nc2ccccc2)C(C)=O)c(O)c(OC)c2occc12`, the TGI in the test with A549 NSCLC, in the test with CCRF-CEM leukemia, in the test on DU-145 prostate, in the test on EKVX NSCLC, in the test with HCC-2998 colon and with HOP-62 NSCLC was greater than 100 µM throughout. Besides, the TGI in the test on M14 melanoma, in the test with MCF7 breast, in the test on MDA-MB-435, in the test with NCI-H226 lung, in the test on OVCAR-5 ovarian and in the test on RXF 393 renal was greater than 100 µM each time. Further, the figures for the TGI in the test with SF-539 CNS, with SK-MEL-28 melanoma and in the test with SK-MEL-5 melanoma were greater than 100 µM, greater than 100 µM and 31.7 µM, respectively.

As to `COc1cc2c(c(N)c1OC)C(=O)/C(=C/c1cc(C)c(O)c(C)c1)C2`, the TGI with A498 renal was greater than 90.4 µM; in the test with A549 NSCLC, greater than 100 µM; in the test with CCRF-CEM leukemia, 11.7 µM; in the test on DU-145 prostate, 16.9 µM; in the test with EKVX NSCLC it was greater than 100 µM; in the test on HCC-2998 colon it was greater than 100 µM. In addition, the TGI in the test on HOP-62 NSCLC was greater than 60.2 µM; with M14 melanoma, greater than 100 µM; in the test on MCF7 breast, greater than 100 µM; in the test on NCI-H226 lung it was greater than 100 µM; in the test with OVCAR-5 ovarian, greater than 100 µM; with RXF 393 renal it was greater than 100 µM. The TGI in the test with SK-MEL-28 melanoma is greater than 100 µM; in the test on SK-MEL-5 melanoma, greater than 32.7 µM.

Take `O=C(O)Cn1nnc2c(=O)[nH][nH]c(=O)c21`: the TGI in the test on A549 NSCLC, in the test with CCRF-CEM leukemia, with DU-145 prostate, with EKVX NSCLC, in the test with HCC-2998 colon and in the test with HOP-62 NSCLC was greater than 100 µM throughout. Besides, the TGI with M14 melanoma, in the test with MCF7 breast, in the test on MDA-MB-435, in the test with OVCAR-5 ovarian, with SK-MEL-28 melanoma and in the test on SK-MEL-5 melanoma was greater than 100 µM each time.

In the case of `O=C1C=C(c2c(-c3ccccc3)[nH]c3ccccc23)C(=O)N1c1ccccc1`, the TGI in the test with A498 renal stood at 23.1 µM; with A549 NSCLC, 46.4 µM; in the test with CCRF-CEM leukemia, 49.4 µM; in the test on DU-145 prostate it was 15.7 µM; in the test on EKVX NSCLC, 38.5 µM; in the test with HCC-2998 colon, 20.8 µM. In addition, the TGI in the test on HOP-62 NSCLC was found to be 1.06 µM; with M14 melanoma, 30.4 µM; in the test on MDA-MB-435 it was 24.6 µM; in the test with NCI-H226 lung, 68.5 µM; with OVCAR-5 ovarian it was 33.3 µM; with RXF 393 renal, 15.2 µM. The TGI was 39.2 µM in the test with SF-539 CNS, 68.7 µM in the test on SK-MEL-28 melanoma and 20.9 µM in the test on SK-MEL-5 melanoma.

For the compound `COCC[N+](CCNC(=O)c1cccc2c(N)c3cccc(C)c3nc12)(CCOC)Cc1ccc([N+](=O)[O-])cc1`, the TGI in the test with A549 NSCLC is greater than 100 µM; in the test on CCRF-CEM leukemia it was 58.1 µM; with DU-145 prostate, 59.1 µM; in the test with EKVX NSCLC, 67.3 µM; with HCC-2998 colon, 27.2 µM; in the test on HOP-62 NSCLC, greater than 100 µM. Further, the TGI in the test with M14 melanoma is greater than 100 µM; in the test on MCF7 breast, 89.8 µM; in the test on MDA-MB-435, 83.4 µM; in the test on OVCAR-5 ovarian it was greater than 100 µM; with SF-539 CNS, 56.7 µM; in the test with SK-MEL-28 melanoma, 52 µM. The TGI in the test on SK-MEL-5 melanoma was found to be 22.9 µM.
